Assay results published in patent publication US7892767B2, “Phosphospecific chemokine receptor antibodies” (Washington University in St. Louis, priority 2005, dated 2011).

Legend:
Nf1−/− astrocytes = assay: Intracellular cAMP by ELISA, Nf1−/− astrocytes; assay type: cell-based, mouse
Experimental: cAMP measurements. cAMP was measured by ELISA (Cayman Chemical Company, Ann Arbor, Mich. or Assay Designs, Ann Arbor, Mich.). Briefly, astrocyte cultures were lysed in 0.1 N HCl. After the removal of cellular debris, soluble cellular extract was dried down and resuspended in EIA buffer. Experimental samples and cAMP standard curve were acetylated to increase the sensitivity of the assay and incubated with cAMP ACHe tracer and cAMP EIA anti-serum overnight at 4° C. according to the manufacturer's instructions. After extensive washing, bound antibody was measured by spectrophotometric analysis. Concentrations of cAMP were derived from comparison with standard curve according to manufacturer's instructions.
We evaluated the time dependent changes in intracellular cAMP in Nf1+/+ and Nf1−/− astrocytes after exposure to 0.1 μg/ml CXCL12. […] However, in Nf1+/+ astrocytes, intracellular levels of cAMP rapidly recovered to baseline and oscillated between baseline and 40% of baseline over the 45-minute experimental period (FIG. 10B).
We hypothesized that if cooperative signaling between Nf1 loss and CXCR4 activation promotes tumor formation through the suppression of cAMP, then agents that alter intracellular cAMP should modulate CXCL12 responses. We treated astrocytes with the adenylyl cyclase (AC) activator forskolin in the presence and absence of CXCL12. […] In these experiments, forskolin elevated intracellular cAMP levels in both Nf1+/+ and Nf1−/− astrocytes with peak values of 17.8+/−0.4 and 19.4+/−4.5 pmol/mg of protein, respectively, after 24 hours of treatment. The effect of forskolin was not abrogated by co-treatment with CXCL12. Under these conditions, cAMP levels were 17.9+/−2.5 and 10.4+/−5.8 pmol/mg of total protein in Nf1+/+ and Nf1−/− astrocytes, respectively. […] The effect of forskolin on CXCL12-mediated Nf1−/− apoptosis was evidenced by changes in the percentage of Nf1−/− astrocytes in the sub-G0 fraction of the cell cycle (FIG. 11B). Thus while astrocyte growth is dependent upon MEK and PI3 kinase activity, CXCL12-induced Nf1−/− astrocyte growth requires the suppression of intracellular cAMP levels.

[1] = system: Daoy medulloblastoma cells; assay: Intracellular cAMP by ELISA, Daoy medulloblastoma cells; assay type: cell-based, human; conditions: 1 μg/ml CXCL12
Experimental: (§1) Growth factor and drug treatment. Following serum-starvation for 24 hours, astrocytes, granule cells, U87 cells and Daoy cells, were treated with 1 μg/ml CXCL12 (PeproTech), […] AMD3465 (kind gift from Simon Fricker, AnorMED, Langley, BC, Canada) (200 μM Rolipram (Sigma), or 10 μM Forskolin (Sigma) as indicated.
cAMP measurement in cell culture. cAMP concentration was measured using a Correlated-EIA™. Enzyme Immunoassay Kit (Assay Designs Inc. MI) according to the manufacturer's instructions. Briefly, U87 or Daoy cells were serum-starved for 24 hours, and treated with CXCL12 (1 μg/ml), Rolipram (200 μM), or forskolin (10 μM). Cells were lysed in 0.1M HCL and particulate matter was removed by centrifugation at >600×g for 10 min. The supernatants were dried down and resuspended in assay buffer.
Determination of cAMP concentration. Competitive immunoassay for cAMP concentration was performed exactly as directed by the manufacturer. Absorbance at 405 nm was measured and cAMP concentrations were determined by calculation based on a standard curve. Protein concentrations were measured by colormetric assay (Bio-Rad, Hercules, Calif.) according to the manufacturer's directions. cAMP values were normalized to protein for each sample individually.

[2] = system: Daoy medulloblastoma cells; assay: Viable cell number by trypan blue exclusion, Daoy cells; assay type: cell-based, human; conditions: CXCL12 1 μg/ml
Experimental: Brain tumor cell cultures. Cells were cultured in αMEM (Invitrogen, Carlsbad, Calif.) supplemented with 10% FCS (Biomedia, Foster City, Calif.) in the presence of penicillin streptomycin at 37° C. with 5% CO2.
as §1

CXCR4 = molecular target: T1, CXCR4 (Mus musculus, UniProt P70658); assay: CXCL12-induced CXCR4 phosphorylation (pCXCR4 western blot), Nf1−/− astrocytes; assay type: cell-based; conditions: CXCL12 0.1 μg/ml, at 5 minutes
T1 construct: endogenous in cells; host or cells: primary mouse astrocytes (Nf1 flox/flox, infected with Ad-LacZ or Ad-Cre)
Experimental: Western Blot Analysis. Whole-cell extracts were obtained by lysing cells with lysis buffer (20 mM Tris pH 7.4, 137 mM NaCl, 10% Glycerol and 1% Triton-X-100) supplemented with phosphatase inhibitor cocktail set II (Calbiochem, La Jolla, Calif.), PMSF (1 mM), leupeptin, (0.005 mg/ml) and aprotinin (0.005 mg/ml). The proteins were resolved with 10% Bis-Tris gels (Invitrogen) and transferred onto the nitrocellulose membrane Hybond ECL (Amersham, Piscataway, N.J.) according to standard protocols. Membranes were incubated with polyclonal antibodies CXCR4 (1:500), pErk½ (1:1200), pan Erk½ (1:150), pAkt (1:500), pan Akt (1:1000), pGRK2 (1:250), and pCXCR4 (1:200) overnight at 4° C. This was followed by incubation with horseradish peroxidase-conjugated secondary antibody (1:15,000; Bio-Rad). Peroxide activity was detected using the enhanced chemiluminescence Supersignal West Dura system (Pierce, Rockford, Ill.) Mouse anti-actin antibody was used as a loading control. Quantitation of western blots was performed by densitometry using Image J software from the NIH.
Among the primary mechanisms for controlling GPCR effects on cAMP production is receptor desensitization (140). This process is initiated when ligand occupied GPCR (e.g., CXCR4) is phosphorylated by G protein receptor kinase (GRK). […]

T1 sequence (P70658 whole entry): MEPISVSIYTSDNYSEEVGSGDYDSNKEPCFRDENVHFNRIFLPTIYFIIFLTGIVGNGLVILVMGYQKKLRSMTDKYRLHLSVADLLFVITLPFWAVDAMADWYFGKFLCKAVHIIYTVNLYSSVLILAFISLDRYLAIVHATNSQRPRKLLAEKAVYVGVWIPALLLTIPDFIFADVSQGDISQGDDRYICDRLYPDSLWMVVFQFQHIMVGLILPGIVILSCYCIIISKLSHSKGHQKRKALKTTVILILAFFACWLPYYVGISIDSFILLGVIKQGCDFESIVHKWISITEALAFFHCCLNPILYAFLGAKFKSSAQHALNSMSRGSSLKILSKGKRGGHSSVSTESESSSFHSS

“CXCL12: chemokine ligand of CXCR4 (Peprotech)” was tested, and the “integrated area under the cAMP curve” value (Nf1−/− astrocytes; 0.1 μg/ml CXCL12, 45-minute period) was 1.96, the “intracellular cAMP in Nf1−/− astrocytes relative to Nf1+/+ astrocytes” value (Nf1−/− astrocytes; 0.1 μg/ml CXCL12, from areas under the curves) was “approximately 73%” and the “cyclic AMP levels after CXCL12” value [1] was “rapidly declined”. The “reduction in cAMP as compared to GPCs (area under the curve)” value [1] was 70%, the “increase in cell number” value [2] was “greater than 2 fold” and the “increase in cell number” value ([2]; serum-free) was “greater than 200%”. For the same substance, the “decrease in pCXCR4” value (CXCR4) was 0.56+/−0.14 fold.
